Source: patent US20210283064A1, “STABLE, BIOADHESIVE, AND DIFFUSION-RESTRICTIVE COACERVATE” (The Chinese University of Hong Kong, priority 2020, published 2021)

Tested on: DSS-induced colitis
Test: Rat model of DSS-induced colitis
Assay type: in vivo, SD rats
Conditions: H&E-stained colon sections, oral gavage days 1, 3, 5, sacrifice day 7
Description: SD rats weighing around 250 g were given 4.5% DSS in drinking water for 7 days to develop acute colitis. Clinical manifestations of the colitis, such as severe rectal bleeding, watery diarrhea, and colonic edema were observed after 7 days. […] Untreated colitic SD rats were used as the negative control. All SD rats were allowed unrestricted access to water and standard laboratory diet before and after oral gavage and sacrificed on day 7 for further evaluation of colon weight and length, histological severity, IBD-associated colonic myeloperoxidase (MPO)-activity, mRNA levels of tight junction-associated proteins (ZO-1 and occludin-1) and pro-inflammatory cytokines, such as interleukin IL-1β and tumor necrosis factor (TNF) in the distal colon.

dexamethasone sodium phosphate [Dex-P/PBS]
mean histopathology score: 1.917
